In paper PMC10610379, “Epidrugs as Promising Tools to Eliminate Plasmodium falciparum Artemisinin-Resistant and Quiescent Parasites” (Pharmaceutics, 2023):
Like-named read-outs stand apart in the source and are kept apart here.

Columns and labels:
NIH3T3 = system: NIH3T3; parameters: method as in PMID 28644986; details: data from literature ref 50, read-out: Cytotoxicity: CC50 (NIH3T3); cited from earlier work
[1] = system: Plasmodium falciparum F32-ART (artemisinin-resistant strain); test: Standard chemosensitivity assay (SYBR Green I), F32-ART; assay type: cell-based; details: for IC50: Plasmodium falciparum, read-out: Antiplasmodial Activity: IC50, F32-ART; for Selectivity Index CC50/IC50: ratio cytotoxicity (mammalian cell type of the CC50)/antiplasmodial activity on F32-ART
Experimental: (§1) They differ by eight mutations in seven genes (PF3D7_0110400, PF3D7_1343700, PF3D7_0213400, PF3D7_1115700, PF3D7_1302100, PF3D7_1459600, PF3D7_1464500) among them the M476I mutation on the kelch13 gene. F32-ART and F32-TEM strains have RSA^0–3 h values up to 12% and less than 0.1%, respectively. […] Both strains were cultured, in the same conditions, according to the Trager and Jensen protocol with modifications. Briefly, parasites were cultivated in RPMI-1640 medium (Biowest) at 2% hematocrit in human red blood cells and 5% human serum (EFS, French Blood Bank) under 5% CO2 in a humid atmosphere at 37 °C.
(§2) The antimalarial activities of the compounds were evaluated on both strains. […] Antimalarial activities were determined with the SYBR Green I method. Each drug concentration was tested in triplicate. The parasites were incubated with the drugs for 48 h. Plates were read on a BioTek FLX800 Microplate Fluorescence Reader (Bio-Tek instruments, Winooski, VT, USA) (λexcitation = 485 nm, λemission = 528 nm). Control parasite culture (i.e., RPMI with 0.5% DMSO) was referred to as 100% growth. IC50 and IC90 values were determined using GraphPad Prism version 7.05 (GraphPad Software, San Diego, CA, USA). Results were the mean of 3 independent experiments. When it is relevant, statistical significance between results obtained with both parasite strains was determined by a Mann–Whitney test using GraphPad Prism version 7.05.

[2] = system: Plasmodium falciparum F32-TEM (artemisinin-sensitive twin line); test: Standard chemosensitivity assay (SYBR Green I), F32-TEM; assay type: cell-based; details: Plasmodium falciparum, read-out: Antiplasmodial Activity: IC50, F32-TEM
Experimental: as §1, §2

HL-60 = details: read-out: Cytotoxicity: CC50 (HL-60), data from literature ref 49; cited from earlier work
HeLa = details: cited from earlier work
human mesenchymal stem = system: human mesenchymal stem; parameters: method as in PMID 30237855; details: data from literature ref 53, read-out: Cytotoxicity: CC50 (human mesenchymal stem); cited from earlier work
monocytes = system: monocytes; parameters: method as in PMID 27091512; details: data from literature ref 47, read-out: Cytotoxicity: CC50 (monocytes); cited from earlier work
NOMO1 = details: read-out: Cytotoxicity: CC50 (NOMO1), data from literature ref 51; cited from earlier work
[3] = system: P. falciparum strains F32-ART and F32-TEM; test: Standard chemosensitivity assay, both strains; assay type: cell-based; details: Plasmodium falciparum, F32, read-out: Antiplasmodial activity IC50
Experimental: as §2

[4] = Cytotoxicity evaluation by MTT assay; assay type: cell-based; details: monkey, Vero cells, * mean of 2 experiments
Experimental: The cytotoxicity of all newly synthesized compounds was evaluated on the Vero cell lines (isolated from monkey kidney cells, gift from the Faculty of Pharmacy, Toulouse, France) by MTT assay according to Mosmann with slight modifications. Briefly, cells in MEM medium supplemented with 10% fetal calf serum, 2 mM L-glutamine, antibiotics (100 U/mL penicillin and 100 µg/mL streptomycin), and NEAA 1X, were seeded in 96-well plates. After a 24-h incubation at 37 °C and 5% CO2 in a humidified atmosphere, compounds were added with concentrations ranging from 5 nM to 50 μM in duplicate. […] The security index was calculated as the ratio of cytotoxicity/antiplasmodial activity.

MCF7 = details: MCF7; data from literature ref 45; read-out: Cytotoxicity: CC50 (MCF7); cited from earlier work
H4IIErat = details: read-out: Cytotoxicity: CC50 (H4IIErat), data from literature ref 54; cited from earlier work
[5] = system: ART-resistant parasites F32-ART at the quiescent stage; test: Quiescent-stage Survival Assay (QSA), 48-h exposure; assay type: cell-based, Plasmodium falciparum
Experimental: The sensitivity of the ART-resistant parasites F32-ART at the quiescent stage towards the different molecules was determined using the QSA (Quiescent-stage Survival Assay), as previously described.
Epidrugs were tested at their IC90 values. In the present study, quiescence was induced using 3 µM of ART or 700 nM of DHA [28]. Thus, D-sorbitol synchronized ring-stage parasites at 3% parasitemia and 2% hematocrit (5 mL of culture per well in 6-well plates) were first exposed to 6 h of ART or DHA to induce quiescence and then to 48 h of the combination “ART or DHA + compound to be tested”. The combinations “ART 6 h/ART 48 h” or “DHA 6 h/DHA 48 h” were used as controls. The compounds were evaluated, in parallel, on proliferating parasites, i.e., without any pre-treatment. After drug exposure, parasite cultures were washed with 40 mL of RPMI-1640 medium and cultured in drug-free conditions supplemented with 10% human serum in new wells. The parasitemia for each condition was then microscopically monitored every 2 days. Culture media were renewed twice a week and 25 µL of fresh red blood cells were added once a week. Obtained data were used to perform Kaplan–Meier survival analyses considering censored data. The outcome was defined as the day when parasite cultures reached the initial parasitemia (3%) and data were considered as censored if no parasite recrudescence was observed during the 30-day experiment timeframe. When relevant, statistical significance between results obtained for the conditions “ART/ART” and “ART/ART + compound to be tested” or “DHA/DHA” and “DHA/DHA + compound to be tested” was determined by a Log Rank (Mantel Cox) test using GraphPad Prism version 7.05. For the best compounds targeting histones, in order to compare western blots data, modified QSAs were carried out by comparing “DHA 6 h/DHA 24 h” versus “DHA 6 h/DHA + compound to be tested 24 h”.

GM15850 = system: GM15850; parameters: method as in PMID 18953021; details: data from literature ref 46, read-out: Cytotoxicity: CC50 (GM15850); cited from earlier work
[6] = F32-ART, 48 h incubation, SYBR Green I, mean ± SEM of 3 experiments (* mean of 2)
[7] = F32-TEM, 48 h incubation, SYBR Green I, mean ± SEM of 3 experiments (* mean of 2)

C#CCN(Cc1ccc2nc(N)[nH]c(=O)c2c1)c1ccc(C(=O)N[C@@H](CCC(=O)O)C(=O)O)cc1 [CB3717]
CC50 (NIH3T3): > 20 µM
IC50 [1, 6]: 1 µM
Selectivity Index CC50/IC50 [1]: >20
IC50 [2, 7]: 1 µM

CN1C(=O)[C@@]23C[C@]4([C@]56C[C@@]78SS[C@@](CO)(C(=O)N7[C@H]5Nc5ccccc56)N(C)C8=O)c5ccccc5N[C@@H]4N2C(=O)[C@]1(CO)SS3 [Chaetocin]
IC50 [1, 6]: 0.64 ± 0.16 µM
Selectivity Index CC50/IC50 [1]: 0.2
CC50 (HL-60): 0.13 µM
IC50 [2, 7]: 0.73 ± 0.09 µM

NNc1nncc2ccccc12 [Hydralazine]
IC50 [1, 6]: > 10 µM
Selectivity Index CC50/IC50 [1]: <4
IC50 [2, 7]: > 10 µM
CC50 (HeLa): 40 µM

Clc1ccc(N/N=C(\c2ccccc2)c2ccccn2)nc1 [JIB-04]
IC50 [1, 6]: 0.56 ± 0.08 µM
Selectivity Index CC50/IC50 [1]: >18
IC50 [2, 7]: 0.94 ± 0.03 µM
CC50 (human mesenchymal stem): > 10 µM

Cn1cc(/C=C/C(=O)c2cccc(F)c2)cc1/C=C/C(=O)NO [MC 1568]
IC50 [1, 6]: > 10 µM
Selectivity Index CC50/IC50 [1]: <1
CC50 (monocytes): 10 µM
IC50 [2, 7]: > 10 µM

CCCCCCCc1ccc(CCc2cccc(O)c2C(=O)O)cc1 [MG149]
IC50 ([1]; F32, 48 h): > 10 µM
IC50 ([2]; F32, 48 h): > 10 µM
CC50 (NOMO1): 51 µM

Cc1ncsc1-c1ccc(CNC(=O)[C@@H]2C[C@@H](O)CN2C(=O)[C@@H](NC(=O)COCCOCCOCCNC(=O)C[C@@H]2N=C(c3ccc(Cl)cc3)c3c(sc(C)c3C)-n3c(C)nnc32)C(C)(C)C)cc1 [MZ1]
IC50 [3]: 1.3 to 1.7 µM
IC50 [1, 6]: 1.7 µM
Selectivity Index CC50/IC50 [1]: >30
IC50 [2, 7]: 1.3 µM
CC50 [4]: > 50 µM

COc1ccc(CN2CCc3ccc(C(=O)NO)cc32)cc1 [PCI 34051]
CC50 (MCF7): > 20 µM
IC50 [1, 6]: 8 µM
Selectivity Index CC50/IC50 [1]: >2.5
IC50 [2, 7]: 9 µM

Cc1cc(Nc2ccc(NC(=O)c3ccc(Nc4ccnc5ccccc45)cc3)cc2)nc(N)n1 [SGI-1027]
IC50 [1, 6]: 0.063 ± 0.013 µM
Selectivity Index CC50/IC50 [1]: >790
CC50 (H4IIErat): > 50 µM
IC50 [2, 7]: 0.054 ± 0.022 µM
Delay in parasite recrudescence time (difference between median recrudescence times), ART/ART + compound vs ART/ART ([5]; quiescence induced with ART 3 µM 6 h, then 48 h ART + compound at its IC90): 8 days
Delay in recrudescence time, DHA/DHA + compound vs DHA/DHA ([5]; quiescence induced with DHA 700 nM 6 h, then 48 h DHA + compound at its IC90): ≥ 6 days

Cc1ccc(NC(=O)CCCCCC(=O)Cc2ccccc2N)cc1 [TC-H 106]
IC50 [1, 6]: > 10 µM
Selectivity Index CC50/IC50 [1]: <0.6
IC50 [2, 7]: > 10 µM
CC50 (GM15850): 6.3 µM
